This is an account of results in US11912699B2, “Tau-protein targeting compounds and associated” (Arvinas Operations, Inc., priority 2019, dated 2024).

The assay addresses T1, Tau P301L (Homo sapiens, UniProt P10636, P618L).
T1 construct: expressed in transfected cells
Put plainly: In vitro tau degradation assay in CHOK1 Tau P301L cells (sarkosyl insoluble tau, WES). The class given is cell-based. The note with it: relative to DMSO doxycycline control; for remaining activity at 1 µM: CHO-K1, read-out: Tau Protein Degradation effect at 1 μM. In short, it runs like this:
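T-Rex CHOK1 clone D1 with doxycycline-inducible (1 μg/ml) Tau P301L treated 48 h with compound at 1 μM, doxycycline removed for the final 24 h. Sarkosyl-insoluble tau quantified by WES capillary electrophoresis with Tau1 antibody, expressed relative to DMSO doxycycline control and binned as ≤50% or >50% remaining.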

[1] abbreviates: remaining tau protein in sarkosyl insoluble pellet, CHOK1 Tau P301L cells treated 48 hours with test compound at 1 μM, doxycycline removed for the last 24 hours.
[2] abbreviates: CHOK1 Tau P301L cells, remaining tau in sarkosyl insoluble pellet, 48 hours with test compound at 1 μM, doxycycline removed for last 24 hours.

Structures can show the parent of a compound that is named as a salt. Where two headings read alike, the source gives them in different places.

T1 sequence (P10636 1-441 isoform P10636-8 P301L): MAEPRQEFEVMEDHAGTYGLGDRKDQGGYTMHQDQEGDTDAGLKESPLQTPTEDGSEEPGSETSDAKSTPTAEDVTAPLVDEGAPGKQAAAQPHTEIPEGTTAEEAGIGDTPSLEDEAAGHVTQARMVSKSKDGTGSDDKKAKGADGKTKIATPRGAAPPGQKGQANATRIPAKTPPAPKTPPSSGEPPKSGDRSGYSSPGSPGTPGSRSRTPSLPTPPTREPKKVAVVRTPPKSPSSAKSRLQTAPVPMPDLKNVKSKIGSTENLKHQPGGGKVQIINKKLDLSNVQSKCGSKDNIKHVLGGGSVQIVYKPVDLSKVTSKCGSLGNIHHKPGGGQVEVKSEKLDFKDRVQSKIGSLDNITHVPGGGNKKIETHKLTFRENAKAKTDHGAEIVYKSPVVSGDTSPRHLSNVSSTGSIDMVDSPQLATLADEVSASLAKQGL

Consider `Cc1ncsc1-c1ccc([C@H](C)NC(=O)[C@@H]2C[C@@H](O)CN2C(=O)[C@H](c2cc(OCCCCCN3CCC(O[C@H]4C[C@H](Oc5ccc(-c6ccc7c8cnccc8n(C)c7c6)cn5)C4)CC3)no2)C(C)C)cc1` [Compound 378, (2S,4R)-4-hydroxy-1-((S)-3-methyl-2-(3-((5-(4-((1r,3r)-3-((5-(5-methyl-5H-pyrido[4,3-b]indol-7-yl)pyridin-2-yl)oxy)cyclobutoxy)piperidin-1-yl)pentyl)oxy)isoxazol-5-yl)butanoyl)-N-((S)-1-(4-(4-methylthiazol-5-yl)phenyl)ethyl) pyrrolidine-2-carboxamide], for which the remaining activity at 1 µM under setting [1] was more than 50%.

As for `O=C1CCC(N2C(=O)c3ccc(N4CCN(CCC5CCN(Cc6ncc(-c7ccc8c9cnccc9n(C(F)F)c8c7)cc6F)CC5)CC4)cc3C2=O)C(=O)N1` (stereo not shown) [Compound 632, 5-(4-(2-(1-((5-(5-(difluoromethyl)-5H-pyrido[4,3-b]indol-7-yl)-3-fluoropyridin-2-yl)methyl)piperidin-4-yl)ethyl)piperazin-1-yl)-2-(2,6-dioxopiperidin-3-yl)isoindoline-1,3-dione], the remaining activity at 1 µM under setting [2] was less than 50%.

In the case of `Cn1c2ccncc2c2ccc(-c3ccc(O[C@H]4C[C@H](OC5CCN(CCCOc6ccc7c(c6)C(=O)N(C6CCC(=O)NC6=O)C7=O)CC5)C4)nc3)cc21` (stereo partly shown) [Compound 385, 2-(2,6-dioxopiperidin-3-yl)-5-(3-(4-((1r,3r)-3-((5-(5-methyl-5H-pyrido[4,3-b]indol-7-yl)pyridin-2-yl)oxy)cyclobutoxy)piperidin-1-yl)propoxy)isoindoline-1,3-dione], the remaining activity at 1 µM under setting [1] was more than 50%.

As to `O=C1CCC(N2C(=O)c3ccc(N4CCN(CC5CC6(CCN(c7ncc(-c8ccc9c%10cnccc%10n(C(F)F)c9c8)cc7F)CC6)C5)CC4)cc3C2=O)C(=O)N1` (stereo not shown) [Compound 614, 5-(4-((7-(5-(5-(difluoromethyl)-5H-pyrido[4,3-b]indol-7-yl)-3-fluoropyridin-2-yl)-7-azaspiro[3.5]nonan-2-yl)methyl)piperazin-1-yl)-2-(2,6-dioxopiperidin-3-yl)isindoline-1,3-dione], under setting [2], the remaining activity at 1 µM is more than 50%.

Consider `O=C1CCC(N2C(=O)c3ccc(N4CCN(CCC5CCN(c6c(F)cc(-c7ccc8c9cnccc9n(C(F)F)c8n7)cc6F)CC5)CC4)cc3C2=O)C(=O)N1` (stereo not shown) [Compound 676, 5-(4-(2-(1-(4-(9-(difluoromethyl)-9H-pyrrolo[2,3-b:4,5-c′]dipyridin-2-yl)-2,6-difluorophenyl)piperidin-4-yl)ethyl)piperazin-1-yl)-2-(2,6-dioxopiperidin-3-yl)isoindoline-1,3-dione], for which the remaining activity at 1 µM under setting [1] is less than 50%.

As to `O=C1CCC(N2C(=O)c3ccc(N4CCN(CCC5CCN(c6ncc(-c7ccc8c9cnccc9n(C(F)F)c8c7)cc6F)CC5)CC4)cc3C2=O)C(=O)N1` (stereo not shown) [Compound 532, 5-[4-[2-[1-[5-[5-(difluoromethyl)pyrido[4,3-b]indol-7-yl]-3-fluoro-2-pyridyl]-4-piperidyl]ethyl]piperazin-1-yl]-2-(2,6-dioxo-3-piperidyl)isoindoline-1,3-dione trifluoroacetate], the remaining activity at 1 µM under setting [1] is less than 50%.

As to `Cn1c2ccncc2c2ccc(-c3ccc(OC4CC5(C4)CN(C(=O)CN4CCC(OC6CN(c7ccc8c(c7)C(=O)N(C7CCC(=O)NC7=O)C8=O)C6)CC4)C5)nc3)cc21` (stereo not shown) [Compound 462, 2-(2,6-dioxopiperidin-3-yl)-5-(3-((1-(2-(6-((5-(5-methyl-5H-pyrido[4,3-b]indol-7-yl)pyridin-2-yl)oxy)-2-azaspiro[3.3]heptan-2-yl)-2-oxoethyl)piperidin-4-yl)oxy)azetidin-1-yl)isoindoline-1,3-dione], under setting [1], the remaining activity at 1 µM is more than 50%.

As to `CC1c2ccc(-c3ccc4c5cnccc5n(C(F)F)c4c3)cc2CCN1CCCCCOc1ccc2c(c1)C(=O)N(C1CCC(=O)NC1=O)C2=O` (stereo not shown) [Compound 603, 5-((5-(6-(5-(difluoromethyl)-5H-pyrido[4,3-b]indol-7-yl)-1-methyl-3,4-dihydroisoquinolin-2(1H)-yl)pentyl)oxy)-2-(2,6-dioxopiperidin-3-yl)isoindoline-1,3-dione], the remaining activity at 1 µM under setting [2] is more than 50%.

Consider `Cn1c2ccncc2c2ccc(-c3ccc(OC4CN(C5CCN(CCCCCOc6ccc7c(c6)C(=O)N(C6CCC(=O)NC6=O)C7=O)CC5)C4)nc3)cc21` (stereo not shown) [Compound 424, 2-(2,6-dioxopiperidin-3-yl)-5-((5-(4-(3-((5-(5-methyl-5H-pyrido[4,3-b]indol-7-yl)pyridin-2-yl)oxy)azetidin-1-yl)piperidin-1-yl)pentyl)oxy) isoindoline-1,3-dione], for which the remaining activity at 1 µM under setting [1] is more than 50%.

As to `Cn1c2ccncc2c2ccc(-c3ccc(O[C@H]4C[C@H](OCCCN5CCN(c6ccc7c(c6)C(=O)N(C6CCC(=O)NC6=O)C7=O)CC5)C4)nc3)cc21` (stereo partly shown) [Compound 343, 2-(2,6-dioxopiperidin-3-yl)-5-(4-(3-((1r,3r)-3-((5-(5-methyl-5H-pyrido[4,3-b]indol-7-yl)pyridin-2-yl)oxy)cyclobutoxy)propyl)piperazin-1-yl)isoindoline-1,3-dione], the remaining activity at 1 µM under setting [1] was less than 50%.

As to `CC(C)(CC1CCN(c2ncc(-c3ccc4c5cnccc5n(C(F)F)c4c3)cc2F)CC1)N1CCN(c2ccc3c(c2)C(=O)N(C2CCC(=O)NC2=O)C3=O)CC1` (stereo not shown) [Compound 677, 5-(4-(1-(1-(5-(5-(difluoromethyl)-5H-pyrido[4,3-b]indol-7-yl)-3-fluoropyridin-2-yl)piperidin-4-yl)-2-methylpropan-2-yl)piperazin-1-yl)-2-(2,6-dioxopiperidin-3-yl)isoindoline-1,3-dione], under setting [1], the remaining activity at 1 µM is less than 50%.

`O=C1CCC(N2C(=O)c3ccc(N4CCN(CCC5CCN(c6ncc(-c7ccc8c9cnccc9n(C(F)F)c8n7)cc6F)CC5)CC4)cc3C2=O)C(=O)N1` (stereo not shown) [Compound 674, 5-(4-(2-(1-(5-(9-(difluoromethyl)-9H-pyrrolo[2,3-b:4,5-c′]dipyridin-2-yl)-3-fluoropyridin-2-yl)piperidin-4-yl)ethyl)piperazin-1-yl)-2-(2,6-dioxopiperidin-3-yl)isoindoline-1,3-dione]: the remaining activity at 1 µM under setting [1] was less than 50%.

In the case of `O=C1CCC(N2C(=O)c3cc(F)c(N4CCCN(CCC5CCN(c6ncc(-c7ccc8c9cnccc9n(C(F)F)c8c7)cc6F)CC5)CC4)cc3C2=O)C(=O)N1` (stereo not shown) [Compound 639, 5-(4-(2-(1-(5-(5-(difluoromethyl)-5H-pyrido[4,3-b]indol-7-yl)-3-fluoropyridin-2-yl)piperidin-4-yl)ethyl)-1,4-diazepan-1-yl)-2-(2,6-dioxopiperidin-3-yl)-6-fluoroisoindoline-1,3-dione], the remaining activity at 1 µM under setting [2] was less than 50%.

For the molecule `Cn1c2ccncc2c2ccc(-c3ccc(O[C@H]4C[C@H](CN5CC6(CN(CCOc7ccc8c(c7)C(=O)N(C7CCC(=O)NC7=O)C8=O)C6)C5)C4)nc3)cc21` (stereo partly shown) [Compound 386, 2-(2,6-dioxo-3-piperidyl)-5-[2-[2-[[3-[[5-(5-methylpyrido[4,3-b]indol-7-yl)-2-pyridyl]oxy]cyclobutyl]methyl]-2,6-diazaspiro[3.3]heptan-6-yl]ethoxy]isoindoline-1,3-dione diformate], under setting [1], the remaining activity at 1 µM was less than 50%.

`Cn1c2ccncc2c2ccc(-c3ccc(C4CCN(CCC5CCN(c6ccc7c(c6)C(=O)N(C6CCC(=O)NC6=O)C7=O)CC5)CC4)nc3)cc21` (stereo not shown) [Compound 508, 2-(2,6-dioxopiperidin-3-yl)-5-(4-(2-(4-(5-(5-methyl-5H-pyrido[4,3-b]indol-7-yl)pyridin-2-yl)piperidin-1-yl)ethyl)piperidin-1-yl)isoindoline-1,3-dione]: the remaining activity at 1 µM under setting [1] is less than 50%.

Take `Cc1ncsc1-c1ccc([C@H](C)NC(=O)[C@@H]2C[C@@H](O)CN2C(=O)[C@@H](c2cc(OCCOCCOCCOc3ccc(-c4ccc5c(c4)[nH]c4ccncc45)cn3)no2)C(C)C)cc1` [Compound 396]: the “Tau Protein Degradation effect at 1 μM” value under setting [1] is “A (≤50% of tau protein remaining (>50% of tau protein degraded))”.

`Cc1ccc(-c2cn3ccc(N(C)CCOCCOCCOc4ccc5c(c4)C(=O)N(C4CCC(=O)NC4=O)C5=O)cc3n2)cc1` (stereo not shown) [Compound 463, 2-(2,6-dioxopiperidin-3-yl)-5-(2-(2-(2-(methyl(2-(p-tolyl)imidazo[1,2-a]pyridin-7-yl)amino)ethoxy)ethoxy)ethoxy)isoindoline-1,3-dione]: the remaining activity at 1 µM under setting [1] is less than 50%.

Consider `Cc1ncsc1-c1ccc([C@H](C)NC(=O)[C@@H]2C[C@@H](O)CN2C(=O)[C@@H](NC(=O)COCCOCCOCCOCCOc2ccc3cc(-n4ccc5ccncc54)ncc3c2)C(C)(C)C)cc1` [Compound 375, (2S,4R)-1-((S)-17-((3-(1H-pyrrolo[2,3-c]pyridin-1-yl)isoquinolin-7-yl)oxy)-2-(tert-butyl)-4-oxo-6,9,12,15-tetraoxa-3-azaheptadecanoyl)-4-hydroxy-N-((S)-1-(4-(4-methylthiazol-5-yl)phenyl)ethyl) pyrrolidine-2-carboxamide], for which the remaining activity at 1 µM under setting [1] is more than 50%.

`CC(C)N(CC1CCN(c2ncc(-c3ccc4c5cnccc5n(C(F)F)c4c3)cc2F)CC1)[C@H]1C[C@H](Oc2ccc3c(c2)C(=O)N(C2CCC(=O)NC2=O)C3=O)C1` (stereo partly shown) [Compound 581, 5-((1r,3r)-3-(((1-(5-(5-(difluoromethyl)-5H-pyrido[4,3-b]indol-7-yl)-3-fluoropyridin-2-yl)piperidin-4-yl)methyl)(isopropyl)amino)cyclobutoxy)-2-(2,6-dioxopiperidin-3-yl)isoindoline-1,3-dione]: the remaining activity at 1 µM under setting [1] is less than 50%.
